According to patent US12065442B2, “Tropomyosin receptor kinase (TRK) degradation compounds and methods of use” (Cullgen (Shanghai), Inc., priority 2018, dated 2024):
Like-named read-outs stand apart in the source and are kept apart here.

Tested on: KM12 cells
Test: Cell viability assay (CellTiter-Glo) in KM12 cells
Type: cell-based
Conditions: Homo sapiens, 72 h, KM12 cell viability, CellTiter-Glo, 3 days, read-out: IC50

For `O=C(CN1CCN(c2ccc(C(=O)Nc3n[nH]c4ccc(Cc5cc(F)cc(F)c5)cc34)c(NC3CCOCC3)c2)CC1)NCCCCNc1ccc2c(c1)C(=O)N(C1CCC(=O)NC1=O)C2=O` (centres unmarked) [TR-156, N-(5-(3,5-Difluorobenzyl)-1H-indazol-3-yl)-4-(4-(2-((4-((2-(2,6-dioxopiperidin-3-yl)-1,3-dioxoisoindolin-5-yl)amino)butyl)amino)-2-oxoethyl)piperazin-1-yl)-2-((tetrahydro-2H-pyran-4-yl)amino)benzamide], the IC50 (Table 3) was 3.3 nM.

Molecule `O=C(CN1CCN(c2ccc(C(=O)Nc3n[nH]c4ccc(Cc5cc(F)cc(F)c5)cc34)c(NC3CCOCC3)c2)CC1)NCCCNc1cccc2c1C(=O)N(C1CCC(=O)NC1=O)C2=O` (centres unmarked) [TR-152, N-(5-(3,5-Difluorobenzyl)-1H-indazol-3-yl)-4-(4-(2-((3-((2-(2,6-dioxopiperidin-3-yl)-1,3-dioxoisoindolin-4-yl)amino)propyl)amino)-2-oxoethyl)piperazin-1-yl)-2-((tetrahydro-2H-pyran-4-yl)amino)benzamide] has an IC50 (Table 3) of 3.1 nM.

With `O=C1CCC(N2Cc3cc(NC4CCN(c5cccc(-c6cnc7ccc(N8CCC[C@@H]8c8cccc(F)c8)nn67)n5)CC4)ccc3C2=O)C(=O)N1` (stereo partly drawn) [TR-212, 3-(5-((1-(6-(6-((R)-2-(3-fluorophenyl)pyrrolidin-1-yl)imidazo[1,2-b]pyridazin-3-yl)pyridin-2-yl)piperidin-4-yl)amino)-1-oxoisoindolin-2-yl)piperidine-2,6-dione] the IC50 (Table 4) was 15.8 nM.

`O=C1CCC(N2C(=O)c3ccc(N4CC(CN5CCN(c6ccc(C(=O)Nc7n[nH]c8ccc(Cc9cc(F)cc(F)c9)cc78)c(NC7CCOCC7)c6)CC5)C4)cc3C2=O)C(=O)N1` (centres unmarked) [TR-231, N-(5-(3,5-Difluorobenzyl)-1H-indazol-3-yl)-4-(4-((1-(2-(2,6-dioxopiperidin-3-yl)-1,3-dioxoisoindolin-5-yl)azetidin-3-yl)methyl)piperazin-1-yl)-2-((tetrahydro-2H-pyran-4-yl)amino)benzamide] was tested, and the IC50 (Table 4) was 3 nM.

`O=C1CCC(N2C(=O)c3ccc(CN4CCN(c5cccc(-c6cnc7ccc(N8CCC[C@@H]8c8cccc(F)c8)nn67)n5)CC4)cc3C2=O)C(=O)N1` (stereo partly drawn) [TR-197, 2-(2,6-Dioxopiperidin-3-yl)-5-((4-(6-(6-((R)-2-(3-fluorophenyl)pyrrolidin-1-yl)imidazo[1,2-b]pyridazin-3-yl)pyridin-2-yl)piperazin-1-yl)methyl)isoindoline-1,3-dione] showed an IC50 (Table 3) of 67.1 nM.

`Cc1ncsc1-c1ccc(CNC(=O)[C@@H]2C[C@@H](O)CN2C(=O)[C@@H](NC(=O)CCCCC(=O)N2CCN(c3cccc(-c4cnc5ccc(N6CCC[C@@H]6c6cccc(F)c6)nn45)n3)CC2)C(C)(C)C)cc1` [CPD-001, (2S,4R)-1-((S)-2-(6-(4-(6-(6-((R)-2-(3-Fluorophenyl)pyrrolidin-1-yl)imidazo[1,2-b]pyridazin-3-yl)pyridin-2-yl)piperazin-1-yl)-6-oxohexanamido)-3,3-dimethylbutanoyl)-4-hydroxy-N-(4-(4-methylthiazol-5-yl)benzyl)pyrrolidine-2-carboxamide] was tested, and the IC50 (Table 2) was greater than 1000 nM.

Work on `O=C1CCC(N2C(=O)c3ccc(N4CCC(N5CCN(c6cccc(-c7cnc8ccc(N9CCC[C@@H]9c9cccc(F)c9)nn78)n6)CC5)CC4)cc3C2=O)C(=O)N1` (stereo partly drawn) [TR-182, 2-(2,6-Dioxopiperidin-3-yl)-5-(4-(4-(6-(6-((R)-2-(3-fluorophenyl)pyrrolidin-1-yl)imidazo[1,2-b]pyridazin-3-yl)pyridin-2-yl)piperazin-1-yl)piperidin-1-yl)isoindoline-1,3-dione] yielded an IC50 (Table 3) of 16 nM.

`CN1CCN(c2ccc(C(=O)Nc3n[nH]c4ccc(Cc5cc(F)cc(F)c5)cc34)c(NC3CCOCC3)c2)CC1` [Entrectinib, entrectinib, reference compound] showed an IC50 (Table 3) of 4.3 nM.

`O=C(CN1CCN(c2cccc(-c3cnc4ccc(N5CCC[C@@H]5c5cccc(F)c5)nn34)n2)CC1)NCCOCCOCCOCCOCCOCCNc1cccc2c1C(=O)N(C1CCC(=O)NC1=O)C2=O` (stereo partly drawn) [TR-104, N-(17-((2-(2,6-dioxopiperidin-3-yl)-1,3-dioxoisoindolin-4-yl)amino)-3,6,9,12,15-pentaoxaheptadecyl)-2-(4-(6-(6-((R)-2-(3-fluorophenyl)pyrrolidin-1-yl)imidazo[1,2-b]pyridazin-3-yl)pyridin-2-yl)piperazin-1-yl)acetamide] showed an IC50 (Table 3) of 8.1 nM.

Molecule `Cc1ncsc1-c1ccc(CNC(=O)[C@@H]2C[C@@H](O)CN2C(=O)[C@@H](NC(=O)CCCCCCCCC(=O)N2CCN(c3ccc(C(=O)Nc4n[nH]c5ccc(Cc6cc(F)cc(F)c6)cc45)c(NC4CCOCC4)c3)CC2)C(C)(C)C)cc1` [CPD-034, (2S,4R)-1-((S)-2-(10-(4-(4-((5-(3,5-Difluorobenzyl)-1H-indazol-3-yl)carbamoyl)-3-((tetrahydro-2H-pyran-4-yl)amino)phenyl)piperazin-1-yl)-10-oxodecanamido)-3,3-dimethylbutanoyl)-4-hydroxy-N-(4-(4-methylthiazol-5-yl)benzyl)pyrrolidine-2-carboxamide] has an IC50 (Table 2) of 300 nM.

In the case of `O=C1CCC(n2c(=O)n(CCN3CCN(c4cccc(-c5cnc6ccc(N7CCC[C@@H]7c7cccc(F)c7)nn56)n4)CC3)c3ccccc32)C(=O)N1` (stereo partly drawn) [TR-227, 3-(3-(2-(4-(6-(6-((R)-2-(3-Fluorophenyl)pyrrolidin-1-yl)imidazo[1,2-b]pyridazin-3-yl)pyridin-2-yl)piperazin-1-yl)ethyl)-2-oxo-2,3-dihydro-1H-benzo[d]imidazol-1-yl)piperidine-2,6-dione], the IC50 (Table 4) is reported as 23.6 nM.

`O=C(CN1CCN(c2ccc(C(=O)Nc3n[nH]c4ccc(Cc5cc(F)cc(F)c5)cc34)c(NC3CCOCC3)c2)CC1)NCCCCNc1cccc2c1C(=O)N(C1CCC(=O)NC1=O)C2=O` (centres unmarked) [TR-155, N-(5-(3,5-Difluorobenzyl)-1H-indazol-3-yl)-4-(4-(2-((4-((2-(2,6-dioxopiperidin-3-yl)-1,3-dioxoisoindolin-4-yl)amino)butyl)amino)-2-oxoethyl)piperazin-1-yl)-2-((tetrahydro-2H-pyran-4-yl)amino)benzamide] showed an IC50 (Table 3) of 2.9 nM.

With `O=C(CN1CCN(c2cccc(-c3cnc4ccc(N5CCC[C@@H]5c5cccc(F)c5)nn34)n2)CC1)NCCOCCOCCOCCOCCOCCNc1ccc2c(c1)C(=O)N(C1CCC(=O)NC1=O)C2=O` (stereo partly drawn) [TR-132, N-(17-((2-(2,6-dioxopiperidin-3-yl)-1,3-dioxoisoindolin-5-yl)amino)-3,6,9,12,15-pentaoxaheptadecyl)-2-(4-(6-(6-((R)-2-(3-fluorophenyl)pyrrolidin-1-yl)imidazo[1,2-b]pyridazin-3-yl)pyridin-2-yl)piperazin-1-yl)acetamide] the IC50 (Table 3) was 4.4 nM.

Molecule `O=C1CCC(N2C(=O)c3ccc(CCN4CCN(c5cccc(-c6cnc7ccc(N8CCC[C@@H]8c8cccc(F)c8)nn67)n5)CC4)cc3C2=O)C(=O)N1` (stereo partly drawn) [TR-204, 2-(2,6-dioxopiperidin-3-yl)-5-(2-(4-(6-(6-((R)-2-(3-fluorophenyl)pyrrolidin-1-yl)imidazo[1,2-b]pyridazin-3-yl)pyridin-2-yl)piperazin-1-yl)ethyl)isoindoline-1,3-dione] has an IC50 (Table 3) of 10.6 nM.

For `Cc1ncsc1-c1ccc(CNC(=O)[C@@H]2C[C@@H](O)CN2C(=O)[C@@H](NC(=O)CCOCCOCCC(=O)N2CCN(c3cccc(-c4cnc5ccc(N6CCC[C@@H]6c6cccc(F)c6)nn45)n3)CC2)C(C)(C)C)cc1` [CPD-020, (2S,4R)-1-((S)-2-(3-(2-(3-(4-(6-(6-((R)-2-(3-Fluorophenyl)pyrrolidin-1-yl)imidazo[1,2-b]pyridazin-3-yl)pyridin-2-yl)piperazin-1-yl)-3-oxopropoxy)ethoxy)propanamido)-3,3-dimethylbutanoyl)-4-hydroxy-N-(4-(4-methylthiazol-5-yl)benzyl)pyrrolidine-2-carboxamide], the IC50 (Table 2) was 200 nM.

For `O=C1CCC(N2C(=O)c3ccc(N4CCC(CN5CCN(c6cccc(-c7cnc8ccc(N9CCC[C@@H]9c9cccc(F)c9)nn78)n6)CC5)C4)cc3C2=O)C(=O)N1` (stereo partly drawn) [TR-225, 2-(2,6-Dioxopiperidin-3-yl)-5-(3-((4-(6-(6-((R)-2-(3-fluorophenyl)pyrrolidin-1-yl)imidazo[1,2-b]pyridazin-3-yl)pyridin-2-yl)piperazin-1-yl)methyl)pyrrolidin-1-yl)isoindoline-1,3-dione], the IC50 (Table 4) was 8.8 nM.

`O=C1CCC(N2C(=O)c3ccc(NCC(=O)NC4CN(c5cccc(-c6cnc7ccc(N8CCC[C@@H]8c8cccc(F)c8)nn67)n5)C4)cc3C2=O)C(=O)N1` (stereo partly drawn) [TR-213, 2-((2-(2,6-Dioxopiperidin-3-yl)-1,3-dioxoisoindolin-5-yl)amino)-N-(1-(6-(6-((R)-2-(3-fluorophenyl)pyrrolidin-1-yl)imidazo[1,2-b]pyridazin-3-yl)pyridin-2-yl)azetidin-3-yl)acetamide] was tested, and the IC50 (Table 4) was 22.7 nM.

Molecule `O=C(CN1CCN(c2ccc(C(=O)Nc3n[nH]c4ccc(Cc5cc(F)cc(F)c5)cc34)c(NC3CCOCC3)c2)CC1)NCCCCCCCNc1cccc2c1C(=O)N(C1CCC(=O)NC1=O)C2=O` (centres unmarked) [TR-154, N-(5-(3,5-Difluorobenzyl)-1H-indazol-3-yl)-4-(4-(2-((7-((2-(2,6-dioxopiperidin-3-yl)-1,3-dioxoisoindolin-4-yl)amino)heptyl)amino)-2-oxoethyl)piperazin-1-yl)-2-((tetrahydro-2H-pyran-4-yl)amino)benzamide] has an IC50 (Table 3) of 20.8 nM.

For `O=C1CCC(N2C(=O)c3ccc(NCCOCCOCCOCCOCCOCCC(=O)N4CCN(c5ccc(C(=O)Nc6n[nH]c7ccc(Cc8cc(F)cc(F)c8)cc67)c(NC6CCOCC6)c5)CC4)cc3C2=O)C(=O)N1` (centres unmarked) [TR-137, N-(5-(3,5-Difluorobenzyl)-1H-indazol-3-yl)-4-(4-(1-((2-(2,6-dioxopiperidin-3-yl)-1,3-dioxoisoindolin-5-yl)amino)-3,6,9,12,15-pentaoxaoctadecan-18-oyl)piperazin-1-yl)-2-((tetrahydro-2H-pyran-4-yl)amino)benzamide], the IC50 (Table 3) was 2.5 nM.

`Cn1c(=O)n(C2CCC(=O)NC2=O)c2cccc(OCCCN3CCN(c4cccc(-c5cnc6ccc(N7CCC[C@@H]7c7cccc(F)c7)nn56)n4)CC3)c21` (stereo partly drawn) [TR-245, 3-(4-(3-(4-(6-(6-((R)-2-(3-fluorophenyl)pyrrolidin-1-yl)imidazo[1,2-b]pyridazin-3-yl)pyridin-2-yl)piperazin-1-yl)propoxy)-3-methyl-2-oxo-2,3-dihydro-1H-benzo[d]imidazol-1-yl)piperidine-2,6-dione] showed an IC50 (Table 4) greater than 500 nM.
